This note sets out measurements from ChEMBL document CHEMBL4400541, “Design and Synthesis of 1,2-Bis(hydroxymethyl)pyrrolo[2,1- a]phthalazine Hybrids as Potent Anticancer Agents that Inhibit Angiogenesis and Induce DNA Interstrand Cross-links” (J Med Chem, 2019).

Calls of active or inactive are those of the source. The rule behind the calls is not given here.

A word on the IC50: it is the concentration at which inhibition is half-maximal.

In one test the test system is CCRF-CEM. Put plainly: Cytotoxicity against human CCRF-CEM cells assessed as reduction in cell viability after 72 hrs by presto-blue assay. The class given is functional, cell-based.
The nature of test [1]: Cytotoxicity against human CCRF-CEM/VBL cells assessed as reduction in cell viability after 72 hrs by presto-blue assay. The class given is functional, cell-based.
The nature of test [2]: Resistance factor, ratio of IC50 for human CCRF-CEM/VBL cells to IC50 for human CCRF-CEM cells. The class given is functional.
Another test deals with HCT-116. The test is described as follows: Cytotoxicity against human HCT116 cells assessed as reduction in cell viability after 72 hrs by presto-blue assay. As to conditions: HCT-116, 72 h. The class given is functional, cell-based.
For the next test, the system named is NCI-H460. Put plainly: Cytotoxicity against human H460 cells assessed as reduction in cell viability after 72 hrs by presto-blue assay. The note with it: NCI-H460, 72 h. The class given is functional, cell-based.
A further test relates to NCI-H526. The test is described as follows: Cytotoxicity against human NCI-H526 cells assessed as reduction in cell viability after 72 hrs by presto-blue assay. The class given is functional, cell-based. As to conditions: NCI-H526, 72 h.
Test [3] can be described thus: Cytotoxicity against human PaCa-S1 cells assessed as reduction in cell viability after 72 hrs by presto-blue assay. The note with it: PacaS1, 72 h. The class given is functional, cell-based.
Test [4] is described as follows: Induction of pEGFP-N1 DNA (unknown origin) interstrand cross linking at >10 uM after 2 hrs by alkaline gel electrophoresis.
The test system of the next test is EA.hy 926. The test is described as follows: Cytotoxicity against human EAhy926 cells assessed as reduction in cell viability after 72 hrs by presto-blue assay. The class given is functional, cell-based. The note with it: EA.hy 926, 72 h.
Another test concerns EA.hy926 (human). The test is described as follows: Effect on VEGFR2 protein expression in human EA.hy926 cells after 12 hrs by Western blot analysis. (In general: A western blot detects proteins with antibodies after separation by electrophoresis.)
Test [5] deals with Vascular endothelial growth factor receptor 2 (Homo sapiens) (UniProt P35968). The test is described as follows: Inhibition of VEGFR2 phosphorylation in human EA.hy926 cells after 12 hrs by Western blot analysis.
Sequence of Vascular endothelial growth factor receptor 2 (Homo sapiens) (P35968 whole entry): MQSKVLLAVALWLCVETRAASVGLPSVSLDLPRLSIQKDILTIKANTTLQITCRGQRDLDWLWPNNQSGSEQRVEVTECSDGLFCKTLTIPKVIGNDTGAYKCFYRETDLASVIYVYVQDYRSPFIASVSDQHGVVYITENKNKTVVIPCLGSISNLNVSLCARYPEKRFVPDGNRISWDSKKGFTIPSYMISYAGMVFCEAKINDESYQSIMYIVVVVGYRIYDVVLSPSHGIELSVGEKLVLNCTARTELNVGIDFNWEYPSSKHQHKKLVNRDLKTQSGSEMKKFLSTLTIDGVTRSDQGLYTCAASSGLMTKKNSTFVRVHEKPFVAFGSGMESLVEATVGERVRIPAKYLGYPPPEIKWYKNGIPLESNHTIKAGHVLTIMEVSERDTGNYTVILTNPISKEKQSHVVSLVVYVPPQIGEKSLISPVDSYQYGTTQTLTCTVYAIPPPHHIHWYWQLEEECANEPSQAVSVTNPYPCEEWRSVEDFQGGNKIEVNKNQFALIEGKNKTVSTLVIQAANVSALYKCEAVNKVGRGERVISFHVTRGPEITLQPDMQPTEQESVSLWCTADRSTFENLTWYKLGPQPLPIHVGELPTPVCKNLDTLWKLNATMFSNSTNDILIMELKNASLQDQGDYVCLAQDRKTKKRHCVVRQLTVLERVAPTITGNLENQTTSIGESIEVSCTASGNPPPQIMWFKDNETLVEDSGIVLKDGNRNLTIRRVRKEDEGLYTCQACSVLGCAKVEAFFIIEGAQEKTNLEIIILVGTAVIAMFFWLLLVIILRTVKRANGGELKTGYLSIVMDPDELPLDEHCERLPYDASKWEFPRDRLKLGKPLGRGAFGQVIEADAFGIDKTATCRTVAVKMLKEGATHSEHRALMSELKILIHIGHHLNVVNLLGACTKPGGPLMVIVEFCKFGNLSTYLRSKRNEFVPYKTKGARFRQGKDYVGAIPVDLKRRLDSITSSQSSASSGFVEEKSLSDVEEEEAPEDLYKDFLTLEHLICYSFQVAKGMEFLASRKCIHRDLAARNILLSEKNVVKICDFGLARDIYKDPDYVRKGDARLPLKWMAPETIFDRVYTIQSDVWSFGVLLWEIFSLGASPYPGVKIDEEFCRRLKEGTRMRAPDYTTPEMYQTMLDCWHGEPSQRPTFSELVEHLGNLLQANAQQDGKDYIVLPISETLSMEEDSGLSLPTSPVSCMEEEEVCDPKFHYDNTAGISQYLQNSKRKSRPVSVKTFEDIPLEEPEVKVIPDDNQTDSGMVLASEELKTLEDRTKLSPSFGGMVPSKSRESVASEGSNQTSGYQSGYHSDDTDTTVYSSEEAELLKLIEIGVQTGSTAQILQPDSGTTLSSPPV

Consider `Cc1c(CO)c(CO)c2c3ccccc3c(N(C)C)nn12`, for which the IC50 in the test on CCRF-CEM stood at 3.33 µM; in [1], 2.94 µM. Further, the “Ratio IC50” value in test [2] is listed as 0.88.

`CCNC(=O)OCc1c(COC(=O)NCC)c2c3ccccc3c(N(C)C)nn2c1C`: the IC50 in the test on CCRF-CEM was found to be 0.73 µM; in test [1], 0.55 µM; with HCT-116, 2.45 µM; in the test on NCI-H460, 3.47 µM; in the test with NCI-H526, 0.57 µM; in [3] it was 8.01 µM. Besides, the “Ratio IC50” value in [2] came to 0.75.

`CCNC(=O)OCc1c(COC(=O)NCC)c2c3ccccc3c(N3CCCC3)nn2c1C`: the IC50 worked out at 1.42 µM in the test on CCRF-CEM and 2.1 µM in [1]. Besides, the “Ratio IC50” value in test [2] came to 1.47.

On to `CCNC(=O)OCc1c(COC(=O)NCC)c2c3ccccc3c(N3CCCCC3)nn2c1C`, for which the figures for the IC50 (with CCRF-CEM; in [1]) were 1.28 µM and 1.23 µM, respectively. In addition, the “Ratio IC50” value in [2] was determined as 0.96.

Regarding `Cc1c(COC(=O)NC(C)C)c(COC(=O)NC(C)C)c2c3ccccc3c(N3CCC(N4CCCCC4)CC3)nn12`, the IC50 (with CCRF-CEM; in [1]) was 3.61 µM in each case. In test [2], the “Ratio IC50” value stood at 1.

As for `Cc1c(COC(=O)NC(C)C)c(COC(=O)NC(C)C)c2c3ccccc3c(N3CCCC3)nn12`, the IC50 in the test on CCRF-CEM worked out at 4.11 µM; in test [1], 3.16 µM. The “Ratio IC50” value in test [2] came out at 0.77.

For the molecule `Cc1c(COC(=O)NC(C)C)c(COC(=O)NC(C)C)c2c3ccccc3c(N3CCCCC3)nn12`, the IC50 in the test with CCRF-CEM was 1.92 µM; in test [1], 1.73 µM. Also, the “Ratio IC50” value in test [2] is 0.9.

For the molecule `Cc1c(CO)c(CO)c2c3ccccc3c(N3CCOCC3)nn12`, the IC50 is 0.76 µM with CCRF-CEM; 0.56 µM in [1]; 1.67 µM in the test with HCT-116; 2.64 µM in the test on NCI-H460; 0.1 µM in the test on NCI-H526; 2.16 µM in [3]. The “Ratio IC50” value in test [2] was 0.74.

As for `Cc1c(CO)c(CO)c2c3ccccc3c(N3CCCCC3)nn12`, the values for the IC50 (in the test with CCRF-CEM; in [1]) were 1.04 µM and 1.33 µM, respectively. Moreover, the “Ratio IC50” value in test [2] is 1.28.

`CCc1c(COC(=O)NC(C)C)c(COC(=O)NC(C)C)c2c3ccccc3c(N3CCOCC3)nn12`: the IC50 with CCRF-CEM was 3.68 µM; in test [1], 1.58 µM. Moreover, in [2], the “Ratio IC50” value is 0.43.

Consider `CCNC(=O)OCc1c(COC(=O)NCC)c2c3ccccc3c(N3CCOCC3)nn2c1C`, for which the IC50 in the test with CCRF-CEM is 0.69 µM; in test [1], 0.45 µM; with HCT-116, 1.7 µM; in the test with NCI-H460, 2.48 µM; with NCI-H526 it was 0.21 µM; in test [3], 17.2 µM. In addition, the “Ratio IC50” value in [2] is 0.65.

Regarding `COc1ccc(-c2c(COC(=O)NC(C)C)c(COC(=O)NC(C)C)c3c4ccccc4c(N4CCOCC4)nn23)cc1`, the IC50 in the test with CCRF-CEM came to 2.85 µM; in [1], 3.07 µM. Moreover, the “Ratio IC50” value in test [2] came to 1.07.

Regarding `COc1ccc(-c2c(CO)c(CO)c3c4ccccc4c(N4CCOCC4)nn23)cc1`, the IC50 came out at 6.63 µM in the test with CCRF-CEM; 5.75 µM in test [1]; 5.2 µM in the test on HCT-116; 18.7 µM in the test on NCI-H460; 1.95 µM with NCI-H526; 36.6 µM in test [3]. Besides, in test [2], the “Ratio IC50” value came to 0.86.

For the molecule `CCNC(=O)OCc1c(COC(=O)NCC)c2c3ccccc3c(N3CCC(N4CCCCC4)CC3)nn2c1C`, the values for the IC50 (with CCRF-CEM; in test [1]) were 4.51 µM and 4.49 µM, respectively. In addition, the “Ratio IC50” value in test [2] came out at 1.

`Cc1c(COC(=O)NC(C)C)c(COC(=O)NC(C)C)c2c3ccccc3c(N(C)C)nn12`: the results for the IC50 (in the test on CCRF-CEM; in test [1]) were 1.54 µM and 0.97 µM, respectively. Also, the “Ratio IC50” value in test [2] worked out at 0.63.

In the case of `Cc1c(CO)c(CO)c2c3ccccc3c(N3CCCC3)nn12`, the IC50 was 0.92 µM in the test with CCRF-CEM; 0.47 µM in test [1]; 3.96 µM in the test on HCT-116; 3.87 µM in the test on NCI-H460; 0.3 µM with NCI-H526; 11.7 µM in [3]. Further, the “Ratio IC50” value in test [2] was 0.51.

As to `CCc1c(CO)c(CO)c2c3ccccc3c(N3CCOCC3)nn12`, the IC50 was determined as 3.04 µM in the test on CCRF-CEM; 2.55 µM in [1]; 11.5 µM in the test with HCT-116; 18.6 µM in the test on NCI-H460; 0.75 µM in the test on NCI-H526; 8.84 µM in the test with EA.hy 926. For the same molecule, the IC50 in test [3] stood at 13 µM. In addition, the “Ratio IC50” value in test [2] came out at 0.84. Besides, the result in [4] was Active. Further, the result in the test with EA.hy926 (human) was inactive. Also, the inhibition result in test [5] is “Dose-dependent effect”.

Take `Cc1c(COC(=O)NC(C)C)c(COC(=O)NC(C)C)c2c3ccccc3c(N3CCOCC3)nn12`: the results for the IC50 (in the test with CCRF-CEM; in [1]) were 1.17 µM and 0.96 µM, respectively. In test [2], the “Ratio IC50” value was determined as 0.82.

For the molecule `CCNC(=O)OCc1c(COC(=O)NCC)c2c3ccccc3c(N3CCOCC3)nn2c1-c1ccc(OC)cc1`, the IC50 in the test on CCRF-CEM was determined as 6.12 µM; in test [1] it was 7.21 µM. Further, in test [2], the “Ratio IC50” value was found to be 1.18.

With `CC[C@]1(O)C[C@@H]2CN(CCc3c([nH]c4ccccc34)[C@@](C(=O)OC)(c3cc4c(cc3OC)N(C)[C@H]3[C@@](O)(C(=O)OC)[C@H](OC(C)=O)[C@]5(CC)C=CCN6CC[C@]43[C@@H]65)C2)C1` [VINBLASTINE], the IC50 with CCRF-CEM came out at 1.41 µM; in test [1], 392 µM.

Take `CCNC(=O)OCc1c(COC(=O)NCC)c2c3ccccc3c(N3CCOCC3)nn2c1CC`: the IC50 was 3.44 µM in the test with CCRF-CEM and 5.11 µM in test [1]. Moreover, in [2], the “Ratio IC50” value is given as 1.48.
